Laboratory results: US11180474B2 (BRISTOL-MYERS SQUIBB COMPANY, priority 2016, dated 2021)
Structures can show the parent of a compound that is named as a salt.

Key:
[1] = target: T1, human TLR7 (Homo sapiens, UniProt Q9NYK1); assay: TLR7 inhibition reporter assay (HEK-Blue cells, SEAP reporter, gardiquimod stimulation); type: cell-based; settings: HEK-Blue cells overexpressing human TLR7, gardiquimod 7.5 μM
T1 construct: host or cells: HEK-Blue cells
T1 sequence (Q9NYK1 27-1049): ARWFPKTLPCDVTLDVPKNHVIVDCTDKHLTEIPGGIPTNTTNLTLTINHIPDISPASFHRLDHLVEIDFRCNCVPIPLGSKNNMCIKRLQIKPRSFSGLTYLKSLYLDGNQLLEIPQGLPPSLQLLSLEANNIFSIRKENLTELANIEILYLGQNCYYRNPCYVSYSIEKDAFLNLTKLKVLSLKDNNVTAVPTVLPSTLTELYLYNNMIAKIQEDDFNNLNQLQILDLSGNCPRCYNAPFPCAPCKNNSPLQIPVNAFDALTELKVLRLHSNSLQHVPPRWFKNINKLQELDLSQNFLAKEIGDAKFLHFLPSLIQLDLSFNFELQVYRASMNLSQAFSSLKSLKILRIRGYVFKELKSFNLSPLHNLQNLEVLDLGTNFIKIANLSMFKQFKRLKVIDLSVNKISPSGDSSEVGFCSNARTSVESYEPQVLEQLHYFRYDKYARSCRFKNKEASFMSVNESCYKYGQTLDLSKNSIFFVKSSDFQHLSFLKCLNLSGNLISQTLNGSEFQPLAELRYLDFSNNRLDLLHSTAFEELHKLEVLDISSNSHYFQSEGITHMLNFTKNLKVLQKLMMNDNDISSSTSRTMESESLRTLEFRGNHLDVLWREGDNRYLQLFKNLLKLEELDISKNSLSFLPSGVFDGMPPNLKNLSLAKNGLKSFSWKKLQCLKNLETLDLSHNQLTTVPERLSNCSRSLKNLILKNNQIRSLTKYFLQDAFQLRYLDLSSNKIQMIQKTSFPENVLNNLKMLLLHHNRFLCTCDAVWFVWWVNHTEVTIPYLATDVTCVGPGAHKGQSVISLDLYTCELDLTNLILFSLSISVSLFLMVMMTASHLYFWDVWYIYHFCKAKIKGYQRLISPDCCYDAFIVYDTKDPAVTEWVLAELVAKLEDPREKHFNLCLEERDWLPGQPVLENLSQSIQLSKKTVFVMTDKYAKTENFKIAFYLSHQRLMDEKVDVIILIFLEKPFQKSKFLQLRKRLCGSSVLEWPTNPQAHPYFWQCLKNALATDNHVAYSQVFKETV
Outline: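 Cells (15000/well for TLR7, 20,000 for TLR8) were treated with compounds over 0.05 nM-50 μM final. After 22 h at 37° C, 5% CO2, SEAP was measured with HEK-Blue Detection reagent; percent inhibition was taken as reduction of agonist-plus-DMSO signal relative to a known inhibitor.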

[2] = target: T2, human TLR9 (Homo sapiens, UniProt Q9NR96); assay: TLR9 inhibition reporter assay (HEK-Blue cells, SEAP reporter, ODN2006 stimulation); type: cell-based; settings: HEK-Blue cells overexpressing human TLR9, ODN2006 5 nM
T2 construct: host or cells: HEK-Blue cells
T2 sequence (Q9NR96 26-1032): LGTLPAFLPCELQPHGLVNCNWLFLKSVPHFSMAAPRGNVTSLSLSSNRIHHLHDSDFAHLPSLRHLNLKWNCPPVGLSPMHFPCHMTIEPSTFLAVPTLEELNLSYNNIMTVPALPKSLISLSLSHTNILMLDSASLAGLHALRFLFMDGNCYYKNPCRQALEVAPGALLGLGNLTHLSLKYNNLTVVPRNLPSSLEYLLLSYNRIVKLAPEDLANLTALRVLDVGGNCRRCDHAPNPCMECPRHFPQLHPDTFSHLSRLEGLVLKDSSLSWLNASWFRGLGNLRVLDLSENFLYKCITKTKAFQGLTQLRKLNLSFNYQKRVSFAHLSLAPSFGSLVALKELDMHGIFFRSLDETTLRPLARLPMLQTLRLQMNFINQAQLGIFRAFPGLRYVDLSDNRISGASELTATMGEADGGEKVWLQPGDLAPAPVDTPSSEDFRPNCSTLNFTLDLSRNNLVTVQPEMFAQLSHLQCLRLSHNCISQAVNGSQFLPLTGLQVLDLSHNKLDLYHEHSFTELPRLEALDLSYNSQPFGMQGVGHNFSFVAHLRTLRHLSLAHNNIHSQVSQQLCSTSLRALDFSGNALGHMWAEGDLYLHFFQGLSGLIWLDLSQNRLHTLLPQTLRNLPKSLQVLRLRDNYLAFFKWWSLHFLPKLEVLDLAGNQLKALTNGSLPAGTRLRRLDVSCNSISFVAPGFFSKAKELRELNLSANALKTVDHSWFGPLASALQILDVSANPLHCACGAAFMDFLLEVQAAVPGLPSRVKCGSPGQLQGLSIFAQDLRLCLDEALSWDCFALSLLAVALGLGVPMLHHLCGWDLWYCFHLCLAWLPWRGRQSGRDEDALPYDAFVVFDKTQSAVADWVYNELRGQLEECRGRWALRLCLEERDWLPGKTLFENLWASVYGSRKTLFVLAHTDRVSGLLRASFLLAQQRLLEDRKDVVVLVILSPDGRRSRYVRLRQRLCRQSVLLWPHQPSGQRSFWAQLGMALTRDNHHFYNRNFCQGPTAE
Outline: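 Human TLR7/8/9 HEK-Blue reporter lines; dose range 0.05 nM–50 μM; 30 min RT preincubation; stimulus gardiquimod 7.5 μM / R848 15.9 μM / ODN2006 5 nM respectively; 22 h, 37 °C; SEAP detected colorimetrically.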

IC50 [1] | IC50 [2] | SMILES
178 nM | 2900 nM | COc1ccc(-c2[nH]c3ccc(C4CCN(CC(=O)NCCCN5CCCC5=O)CC4)cc3c2CC(F)(F)F)cc1OC [Example 376, 2-(4-(2-(3,4-dimethoxyphenyl)-3-(2,2,2-trifluoroethyl)-1H-indol-5-yl)piperidin-1-yl)-N-(3-(2-oxopyrrolidin-1-yl)propyl)acetamide]
233 nM | 8650 nM | CCC(C)NC(=O)CN1CCC(c2ccc3[nH]c(-c4ccc(OC)c(OC)c4)c(CC(F)(F)F)c3c2)CC1 (stereo not drawn) [Example 377, N-(sec-butyl)-2-(4-(2-(3,4-dimethoxyphenyl)-3-(2,2,2-trifluoroethyl)-1H-indol-5-yl)piperidin-1-yl)acetamide]
622 nM | 14400 nM | CCC(CC)NC(=O)CN1CCC(c2ccc3[nH]c(-c4ccc(OC)c(OC)c4)c(CC(F)(F)F)c3c2)CC1 [Example 378, 2-(4-(2-(3,4-dimethoxyphenyl)-3-(2,2,2-trifluoroethyl)-1H-indol-5-yl)piperidin-1-yl)-N-(pentan-3-yl)acetamide]
94 nM | 4230 nM | COc1ccc(-c2[nH]c3ccc(C4CCN(CC(=O)NCCNC(C)=O)CC4)cc3c2CC(F)(F)F)cc1OC [Example 379, N-(2-acetamidoethyl)-2-(4-(2-(3,4-dimethoxyphenyl)-3-(2,2,2-trifluoroethyl)-1H-indol-5-yl)piperidin-1-yl)acetamide]
33 nM | 745 nM | COc1ccc(-c2[nH]c3ccc(C4CCN(CC(=O)NCCN(C)C)CC4)cc3c2CC(F)(F)F)cc1OC [Example 380, 2-(4-(2-(3,4-dimethoxyphenyl)-3-(2,2,2-trifluoroethyl)-1H-indol-5-yl)piperidin-1-yl)-N-(2-(dimethylamino)ethyl)acetamide]
63 nM | 5910 nM | COc1ccc(-c2[nH]c3ccc(C4CCN(CC(=O)NCC#N)CC4)cc3c2CC(F)(F)F)cc1OC [Example 381, N-(cyanomethyl)-2-(4-(2-(3,4-dimethoxyphenyl)-3-(2,2,2-trifluoroethyl)-1H-indol-5-yl)piperidin-1-yl)acetamide]
17 nM | 555 nM | COc1ccc(-c2[nH]c3ccc(C4CCN(CC(=O)NCCCN(C)C)CC4)cc3c2CC(F)(F)F)cc1OC [Example 382, 2-(4-(2-(3,4-dimethoxyphenyl)-3-(2,2,2-trifluoroethyl)-1H-indol-5-yl)piperidin-1-yl)-N-(3-(dimethylamino)propyl)acetamide]
13 nM | 660 nM | COc1ccc(-c2[nH]c3ccc(C4CCN(CC(=O)NCCCn5ccnc5)CC4)cc3c2CC(F)(F)F)cc1OC [Example 383, N-(3-(1H-imidazol-1-yl)propyl)-2-(4-(2-(3,4-dimethoxyphenyl)-3-(2,2,2-trifluoroethyl)-1H-indol-5-yl)piperidin-1-yl)acetamide]
150 nM | 2310 nM | COc1ccc(-c2[nH]c3ccc(C4CCN(CC(=O)NCCc5ccc(S(N)(=O)=O)cc5)CC4)cc3c2CC(F)(F)F)cc1OC [Example 384, 2-(4-(2-(3,4-dimethoxyphenyl)-3-(2,2,2-trifluoroethyl)-1H-indol-5-yl)piperidin-1-yl)-N-(4-sulfamoylphenethyl)acetamide]
61 nM | 4250 nM | COc1ccc(-c2[nH]c3ccc(C4CCN(CC(=O)NCC(N)=O)CC4)cc3c2CC(F)(F)F)cc1OC [Example 385, N-(2-amino-2-oxoethyl)-2-(4-(2-(3,4-dimethoxyphenyl)-3-(2,2,2-trifluoroethyl)-1H-indol-5-yl)piperidin-1-yl)acetamide]
557 nM | ≥ 50000 nM | COc1ccc(-c2[nH]c3ccc(C4CCN(CC(=O)NCCS(=O)(=O)O)CC4)cc3c2CC(F)(F)F)cc1OC [Example 386, 2-(2-(4-(2-(3,4-dimethoxyphenyl)-3-(2,2,2-trifluoroethyl)-1H-indol-5-yl)piperidin-1-yl)acetamido)ethane-1-sulfonic acid]
994 nM | 8430 nM | COc1ccc(-c2[nH]c3ccc(C4CCN(CC(=O)Nc5cc(C(C)(C)C)[nH]n5)CC4)cc3c2CC(F)(F)F)cc1OC [Example 387, N-(5-(tert-butyl)-1H-pyrazol-3-yl)-2-(4-(2-(3,4-dimethoxyphenyl)-3-(2,2,2-trifluoroethyl)-1H-indol-5-yl)piperidin-1-yl)acetamide]
9 nM | 288 nM | COc1ccc(-c2[nH]c3ccc(C4CCN(CC(=O)NCCCCN5CCCC5)CC4)cc3c2CC(F)(F)F)cc1OC [Example 388, 2-(4-(2-(3,4-dimethoxyphenyl)-3-(2,2,2-trifluoroethyl)-1H-indol-5-yl)piperidin-1-yl)-N-(4-(pyrrolidin-1-yl)butyl)acetamide]
626 nM | 5400 nM | CCN(CC)C(=O)C1CCCN(CC(=O)N2CCC(c3ccc4[nH]c(-c5ccc(OC)c(OC)c5)c(C5CCOCC5)c4c3)CC2)C1 (stereo not drawn) [Example 391, 1-(2-(4-(2-(3,4-dimethoxyphenyl)-3-(tetrahydro-2H-pyran-4-yl)-1H-indol-5-yl)piperidin-1-yl)-2-oxoethyl)-N,N-diethylpiperidine-3-carboxamide]
681 nM | 1800 nM | CCN(CC)C(=O)C1CCCN(CC(=O)N2CCC(c3ccc4[nH]c(-c5ccc(OC)c(OC)c5)c(C5CCOCC5)c4c3)CC2)C1 (stereo not drawn) [Example 392, 1-(2-(4-(2-(3,4-dimethoxyphenyl)-3-(tetrahydro-2H-pyran-4-yl)-1H-indol-5-yl)piperidin-1-yl)-2-oxoethyl)-N,N-diethylpiperidine-3-carboxamide]
1390 nM | 2760 nM | COc1ccc(-c2[nH]c3ccc(C4CCN(C(=O)CN[C@H](C)C(C)C)CC4)cc3c2C2CCOCC2)cc1OC [Example 394, (R)-1-(4-(2-(3,4-dimethoxyphenyl)-3-(tetrahydro-2H-pyran-4-yl)-1H-indol-5-yl)piperidin-1-yl)-2-((3-methylbutan-2-yl)amino)ethan-1-one]
61 nM | 13200 nM | COc1ccc(-c2[nH]c3ccc(C4CCN(C(=O)CN(C)C)CC4)cc3c2C(O)C(F)(F)F)cc1OC (stereo not drawn) [Example 395, 1-(4-(2-(3,4-dimethoxyphenyl)-3-(2,2,2-trifluoro-1-hydroxyethyl)-1H-indol-5-yl)piperidin-1-yl)-2-(dimethylamino)ethan-1-one]
47 nM | 3430 nM | CCc1c(-c2ccc(OC)c(OC)c2)[nH]c2cc(C)c(C3CCNCC3)cc12 [Example 396, 2-(3,4-dimethoxyphenyl)-3-ethyl-6-methyl-5-(piperidin-4-yl)-1H-indole, HCl]
